How the values were obtained:
MDA-MB-468 cells = assay: Cellular proliferation/cytotoxicity assay (Alamar Blue), MDA-MB-468; assay type: cell-based; settings: Homo sapiens; MDA-MB-468, 48 hours, Alamar Blue (Resazurin); read-out: Anti-proliferative/cytotoxic activity: IC50 MDA468
Method: The anti-proliferative activity of the compounds as described herein, is evaluated using MCF7 and MDA-MB-468 (ATCC HTB-22 and HTB-132) cell lines and the Alamar Blue (Resazurin) cell viability assay (O'Brien et al. Eur J Biochem 267, 5421-5426, 2000). Resazurin is reduced to the fluorescent rescrufin by cellular dehydrogenase activity, correlating with viable, proliferating cells. Test compounds are dissolved as 10 mM solutions in DMSO and subsequently diluted. MCF7 or […] cells were seeded into 96 well flat bottom plates at a density of 10000 cells/well (MCF7) or 5000 cells/well (MDA-MB-468) in a volume of 200 μl/well. 24 hours after seeding, 1 μl each of the compound dilutions are added into each well of the 96 well plates. Each compound dilution is tested as at least as duplicates. Wells containing untreated control cells were filled with 200 μl DMEM containing 0.5% v:v DMSO. The cells are then incubated with the substances for 48 hours at 37° C. in a humidified atmosphere containing 5% carbon dioxide. To determine cell viability, 20 μl of a Resazurin solution (Sigma; 90 mg/l) are added. After 4 hours incubation at 37° C. the fluorescence is measured at an extinction of 544 nm and an emission of 590 nm (Wallac Victor2; Perkin Elmer, USA). For the calculation of the cell viability the emission value from untreated cells is set as 100% viability and the emission rates of treated cells are set in relation to the values of untreated cells. Viabilities are expressed as % values. The corresponding IC50 values of the compounds for cytotoxic activity are determined from the concentration-effect curves by means of non-linear regression. The analysis of the data is performed using a biostatistical program (GraphPad Prism, USA).

[1] = test system: phosphorylated GSK3 (Ser9) in MCF7 cells; assay: Cellular pGSK3 assay (pGSK3-ELISA); assay type: cell-based; settings: Homo sapiens, 48 h, read-out: GSK3 inhibition (pGSK3-ELISA): IC50
Method: In order to study the cellular activity of the compounds according to the invention, an ELISA-based assay has been established for the phosphorylated glycogen synthetase kinase 3, GSK3. The assay is based on a solid phase sandwich ELISA that detects endogenous levels of the phosphorylated GSK3 (BioSource International, Inc.; Catalog #KHO0461). A phospho-GSK3 (Ser9) antibody has been coated onto the microwells. After incubation with cell lysates, the coated antibody captures the phosphorylated GSK3 protein. Following extensive washing, GSK3 polyclonal antibody is added to detect the captured phospho-GSK3 protein. HRP-linked […] antibody (anti-rabbit IgG-HRP) is then used to recognize the bound detection antibody. […]
Cells are harvested and lysed with brief vortexing in cell extraction buffer (10 mM Tris, pH 7.4, 100 mM NaCl, 1 mM EDTA, 1 mM EGTA, 1 mM NaF, 20 mM Na4P2O7, 2 mM Na3VO4, 1% Triton X-100, 10% glycerol, 0.1% SDS, 0.5% deoxycholate, 1 mM PMSF). […] The absorbance is measured at 450 nm (Wallac Victor2; Perkin Elmer, USA) within 30 minutes after adding Stop solution. The analysis of the data is performed using a statistical program (Microsoft Excel, USA) and the inhibition of pGSK3 phosphorylation is determined.

IC50 [1]: 10 µM
SMILES: CC(C)(N)c1ccc(C(=O)Nc2ccc(Nc3cc(-c4cccc5c4oc4ccccc45)ncn3)cc2)cc1 [Compound 69, 4-(1-Amino-1-methyl-ethyl)-N-[4-(6-dibenzofuran-4-yl-pyrimidin-4-ylamino)-phenyl]-benzamide trifluoracetate]
IC50 (MDA-MB-468 cells): ≤ 6.05 µM
